From patent US9402848B2, “Method for treating pain syndrome and other disorders” (VM Therapeutics LLC, priority 2008, dated 2016)

What was measured:
[1] = system: Formalin induced pain in rat animal models of hyperalgesia; assay: Rat Formalin Paw Test; type: in vivo; conditions: FIG. 1
Procedure: Rat Formalin Paw Test (in Vivo Assay): Compounds were assessed for their ability to inhibit the behavioral response evoked by an injection of formalin (50 μl of 5% formalin). A metal band was affixed to the left hind paw of male Holtzman rats (225-250 g, Harlan Industries, Indianapolis Ind.) and each rat was conditioned to the band for 60 min within a plastic cylinder (15 cm diameter). Rats were dosed with either vehicle, positive control compound or a test compound either before (local) or after (systemic) formalin challenge. For local administration, compounds were prepared in either a 1:1.5 vehicle of saline (in mL) and (D)- or (L)-Tartaric acid (in mg), or a 1:1:6 vehicle of DMA (N,N-Dimethylacetamide), Tween 80 and saline, and injected […] into the dorsal surface of the right hind paw of the rat 60 min prior to formalin. The number of flinches was counted continuously for 60 min using an automated nociception analyzer (UCSD Anesthesiology Research, San Diego, Calif.). Statistical significance was determined by comparing the total flinches detected in the early (0-10 min, Phase I) and late (11-60 min) phase with an unpaired t-test. […]

[2] = system: Carrageenan-induced pain in rat animal model of hyperalgesia; assay: Carrageenan-induced pain in rat animal model of hyperalgesia; type: in vivo; conditions: FIG. 2 and FIG. 3

Cc1nc2ccccn2c(=O)c1CCN1CCC(C(=O)c2ccc(F)cc2)CC1 [Compound 10, 3-(2-{4-[(4-fluorophenyl)carbonyl]piperidin-1-yl}ethyl)-2-methyl-4H-pyrido[1,2-a]pyrimidin-4-one]
reduction of Formalin induced pain [1]: reduction of Formalin induced pain | reduction of Carrageenan-induced pain [2]: reduction of Carrageenan-induced pain
